# From ChEMBL document CHEMBL4354786, “Prodrug strategies for targeted therapy triggered by reactive oxygen species” (Medchemcomm, 2019)
# Assay: Drug metabolism in pH 7.5 HEPES buffer assessed as hydrolysis after 24 hrs
smiles,measurement,value
O=C(O)c1ccc(S(=O)(=O)On2c(C(=O)NCc3ccc(-c4ccccc4)cc3)cccc2=O)cc1,Drug metabolism,100%
O=C(NCc1ccc(-c2ccccc2)cc1)c1cccc(=O)n1OS(=O)(=O)c1ccccc1,Drug metabolism,100%
